In article PMC3035770 (Biochemistry, 2011):
Where two headings read alike, the source gives them in different places. Values belong to the compound of their own block, whether it stands above or below them.

Tests used:
[1] = molecular target: T1, PKR (double-stranded RNA-activated protein kinase) (Homo sapiens, UniProt P19525); assay: fluorescence polarization, direct titration; assay type: binding
[2] = molecular target: bovine serum albumin (BSA) (Bos taurus, UniProt P02769); assay: fluorescence polarization, direct titration; assay type: binding
Sequence of bovine serum albumin (BSA) (P02769 25-607): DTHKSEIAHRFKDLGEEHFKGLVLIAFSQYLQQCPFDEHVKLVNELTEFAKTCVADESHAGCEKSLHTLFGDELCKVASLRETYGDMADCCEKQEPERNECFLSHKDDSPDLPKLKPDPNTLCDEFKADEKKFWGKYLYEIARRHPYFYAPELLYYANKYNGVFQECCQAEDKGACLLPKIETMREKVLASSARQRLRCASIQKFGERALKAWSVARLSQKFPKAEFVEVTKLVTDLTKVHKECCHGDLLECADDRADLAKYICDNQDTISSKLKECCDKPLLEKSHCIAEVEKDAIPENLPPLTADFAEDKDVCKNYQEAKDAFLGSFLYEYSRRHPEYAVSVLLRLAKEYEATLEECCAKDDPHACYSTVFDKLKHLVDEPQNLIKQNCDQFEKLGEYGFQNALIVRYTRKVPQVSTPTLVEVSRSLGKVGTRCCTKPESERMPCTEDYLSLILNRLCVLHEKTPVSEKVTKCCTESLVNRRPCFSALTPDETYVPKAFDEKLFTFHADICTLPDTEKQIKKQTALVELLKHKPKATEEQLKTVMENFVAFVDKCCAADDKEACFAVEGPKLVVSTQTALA

[3] = molecular target: T1, PKR (double-stranded RNA-activated protein kinase); assay: radiolabeled ATP binding, ZipTip-C4 separation
[4] = molecular target: PKR (Homo sapiens) (UniProt P19525); details: cited from earlier work
[5] = molecular target: PKR (Homo sapiens) (UniProt P19525); details: cited from earlier work; remark: listed apart in the source
[6] = molecular target: PKR (Homo sapiens) (UniProt P19525); details: cited from earlier work; remark: listed apart in the source

- Kd [1]: 0.0232 ± 0.00128 µM
- Kd [2]: 0.0292 ± 0.00185 µM
Compound: CC1=CC(C)=[N+]2C1=Cc1ccc(CCCCCCCCCCCCCCCC(=O)O)n1[B-]2(F)F [Bodipy-C16, 4,4-difluoro-5,7-dimethyl-4-bora-3a,4a-diaza-s-indacene-3-hexadecanoic acid]

Compound: Nc1ncnc2c1ncn2[C@@H]1O[C@H](COP(=O)(O)OP(=O)(O)OP(=O)(O)O)[C@@H](O)[C@H]1O [ATP]
- % bound [3]: 16.61 % bound

Compound: PKR (from UniProt P19525)
- Kd [4]: 500 µM
- Kd [5]: 75 µM
- Kd [6]: 20 µM
